In patent US11220482B2, “Aminopyridinemethanol compounds and their use” (UNIVERSITE AMIENS PICARDIE JULES VERNE, priority 2017, dated 2022):
Where two headings read alike, the source gives them in different places.

Experiments:
CHO-K1 cells [1] = test: In vitro micronucleus assay, short-term exposure
Experimental: All the assays were conducted in duplicate. The CHO-K1 cells, suspended in McCoy's 5A medium, were transferred into Labteck wells at a concentration of 100,000 cells/mL, and incubated for 24 hours at 37° C. in CO2 (5%).
When the test was performed without metabolic activation, the test substances were added into cell cultures at concentrations previously defined.
When the assay was performed in the presence of metabolic activation, S9 mix metabolizing mixture was added to cell cultures at a concentration of 10%. Then the test substances were added to the cell cultures at concentrations previously defined.
After 3 hours of incubation at 37° C. in CO2 (5%), the culture medium was removed, the cells were rinsed with phosphate buffered saline (PBS), and then returned to culture in McCoy's 5A medium containing […] of cytochalasin B. After a 21-hour incubation period at 37° C., cells were rinsed with phosphate buffered saline (PBS), fixed with methanol and stained with 10% Giemsa for 20 minutes.
(§1) The analysis of results was performed under a microscope at ×1000 magnification. The antiproliferative activity of test substances was estimated by counting the number of binucleated cells relative to the number of mononucleated cells on a total of 500 cells for each dose (250 cells counted per well). The proliferation index (Cytokinesis Blocked Proliferative Index CBPI) was calculated using the following formula:
(§2) The cytostasis index (CI %), i.e. the percentage of cell replication inhibition, was calculated using the following formula: CI %−100−{100×(CBPItest material−1)/(CBPIsolvent control−1)}
(§3) The rates of micronuclei were evaluated for the presence of independent nuclear core entities in 1000 binucleated cells per well, which corresponds to 2000 cells examined by test substance dose. Micronuclei were identified as small nuclei well differentiated from cell nucleus, stained in the same manner and having a diameter less than one third of that of the cell nucleus.
(§4) Micronuclei rates obtained for different doses of test substances were compared to the negative control by a χ2 test. The assay was considered positive if: • A dose-response relationship was obtained between the rate of micronuclei and the doses tested, • At least one of these doses induced a statistically significant increase (P<0.05) in the number of micronucleated cells as compared to the negative control.

S. typhimurium TA98 = test: Bacterial reverse mutation assay (Ames test)
Plasmodium falciparum W2 = test: Plasmodium falciparum susceptibility assay, first round (SYBR Green I); format: cell-based; conditions: W2, first round, 48-h incubation, strain resistant to CQ, sensitive to MQ, read-out: IC50 (nM) Plasmodium falciparum W2 (converted)
CHO-K1 cells [2] = conditions: Chinese hamster, 24 h
Experimental: All the assays were conducted in duplicate. The CHO-K1 cells, suspended in Mac Coy's 5A medium, were transferred into Labteck wells at a concentration of 100,000 cells/mL, and incubated for 24 hours at 37° C. in CO2 (5%).
The test was performed without metabolic activation: the test substances were added into cell cultures at concentrations previously defined. […] After 24 hours of incubation at 37° C. in CO2 (5%), the culture medium was removed, the cells were rinsed with phosphate buffered saline (PBS), and then returned in culture medium containing […] of cytochalasine B. After a 24-hour incubation period at 37° C., cells were rinsed with phosphate buffered saline (PBS), fixed with methanol and stained with 10% Giemsa for 20 minutes.
as §1, §2, §3, §4

Salmonella strains = test: Bacterial reverse mutation assay (Ames test), overall conclusion; format: cell-based, S. typhimurium; conditions: all tested doses, absence or presence of the metabolizing mixture
Experimental: Five strains of S. typhimurium were used. […] An additional strain has been chosen to detect cross-linking mutagens, hydrazines and oxidative agents: TA102, which have an AT base pair at the primary reversion site. Salmonella tester strains were gifts from Prof. B. N. Ames (Berkeley, Calif., USA). They were stored at −80° C. and regularly checked for genetic markers.
Few crystals of the frozen working strains were taken with a sterile pipette, and seeded in 10 mL of nutrient broth (NB No 2, Oxoid). Strains were grown overnight at 37° C. with shaking in Nutrient Broth No. 2, with ampicillin (25 μg/mL) for TA1535, TA97a, TA98, and TA 100, or ampicillin (25 μg/mL) plus tetracyclin (2 μg/mL) for TA 102. At the end of the incubation period, 0.1 mL of each overnight culture was mixed to 0.1 mL S9 Mix or 0.1 mL phosphate-buffered saline (PBS, pH 7.4) in 5 mL plastic tubes and various volumes of the tested samples were added to the mixtures. Each experiment included triplicate plates of four tested doses. A solvent (DMSO, 10 μL) control was added to determine the spontaneous frequency of revertants (quadruple plates). Five positive controls were also included to ensure the performance of the tester strains and the S9 Mix. […] After hardening, the plates were incubated at 37° C. for 48 hours.
At the end of the incubation period, revertants were counted with a laser colony counter equipped with a bacterial enumeration program (Spiral System Instrument Inc., Bethesda, Md., USA).
The Dunnett test was performed to determine a significant difference between the mean number of induced revertants and the mean number of spontaneous revertants.

[3] = system: Plasmodium falciparum 3D7; test: Plasmodium falciparum susceptibility assay, first round (SYBR Green I); format: cell-based; conditions: 3D7, first round, 48-h incubation, strain susceptible to CQ, decreased susceptibility to MQ, read-out: IC50 (nM) Plasmodium falciparum 3D7 (converted)

## COC[C@H](Cc1ccccc1)NC[C@@H](O)c1cc(-c2ccc(C(F)(F)F)cc2)nc(C(F)(F)F)c1 [Compound 1i, (S)-2-(((S)-1-Methoxy-3-phenylpropan-2-yl)amino)-1-(2-(trifluoromethyl)-6-(4-(trifluoromethyl)phenyl)pyridin-4-yl)ethanol]
CHO-K1 cells [1]
  in vitro micronucleus assay result (clastogenic and/or aneugenic activities): negative results
S. typhimurium TA98; with S9 mix, 0.4 μg/plate
  Number of revertants by plate (Means ± SD), TA98: 24 ± 2^NS
S. typhimurium TA98; with S9 mix, 0.6 μg/plate
  Number of revertants by plate (Means ± SD), TA98: 18 ± 3^NS
S. typhimurium TA98; with S9 mix, 0.8 μg/plate
  Number of revertants by plate (Means ± SD), TA98: 17 ± 1^NS
S. typhimurium TA98; with S9 mix, 1 μg/plate
  Number of revertants by plate (Means ± SD), TA98: 20 ± 2^NS
S. typhimurium TA98; without S9 mix, 0.4 μg/plate
  Number of revertants by plate (Means ± SD), TA98: 32 ± 3^NS
S. typhimurium TA98; without S9 mix, 0.6 μg/plate
  Number of revertants by plate (Means ± SD), TA98: 33 ± 3^NS
S. typhimurium TA98; without S9 mix, 0.8 μg/plate
  Number of revertants by plate (Means ± SD), TA98: 33 ± 3^NS
S. typhimurium TA98; without S9 mix, 1 μg/plate
  Number of revertants by plate (Means ± SD), TA98: 34 ± 7^NS
Plasmodium falciparum W2
  IC50: 28.8 ± 3.8 nM
S. typhimurium TA102; with S9 mix, 0.4 μg/plate
  Number of revertants by plate (Means ± SD), TA102: 351 ± 6^NS
S. typhimurium TA102; with S9 mix, 0.6 μg/plate
  Number of revertants by plate (Means ± SD), TA102: 355 ± 16^NS
S. typhimurium TA102; with S9 mix, 0.8 μg/plate
  Number of revertants by plate (Means ± SD), TA102: 376 ± 10^NS
S. typhimurium TA102; with S9 mix, 1 μg/plate
  Number of revertants by plate (Means ± SD), TA102: 362 ± 4^NS
S. typhimurium TA102; without S9 mix, 0.4 μg/plate
  Number of revertants by plate (Means ± SD), TA102: 332 ± 19^NS
S. typhimurium TA102; without S9 mix, 0.6 μg/plate
  Number of revertants by plate (Means ± SD), TA102: 293 ± 4^NS
S. typhimurium TA102; without S9 mix, 0.8 μg/plate
  Number of revertants by plate (Means ± SD), TA102: 328 ± 14^NS
S. typhimurium TA102; without S9 mix, 1 μg/plate
  Number of revertants by plate (Means ± SD), TA102: 347 ± 11^NS
S. typhimurium TA100; with S9 mix, 0.4 μg/plate
  Number of revertants by plate (Means ± SD), TA100: 191 ± 11^NS
S. typhimurium TA100; with S9 mix, 0.6 μg/plate
  Number of revertants by plate (Means ± SD), TA100: 173 ± 10^NS
S. typhimurium TA100; with S9 mix, 0.8 μg/plate
  Number of revertants by plate (Means ± SD), TA100: 182 ± 10^NS
S. typhimurium TA100; with S9 mix, 1 μg/plate
  Number of revertants by plate (Means ± SD), TA100: 174 ± 10^NS
S. typhimurium TA100; without S9 mix, 0.4 μg/plate
  Number of revertants by plate (Means ± SD), TA100: 200 ± 7^NS
S. typhimurium TA100; without S9 mix, 0.6 μg/plate
  Number of revertants by plate (Means ± SD), TA100: 199 ± 10^NS
S. typhimurium TA100; without S9 mix, 0.8 μg/plate
  Number of revertants by plate (Means ± SD), TA100: 209 ± 17^NS
S. typhimurium TA100; without S9 mix, 1 μg/plate
  Number of revertants by plate (Means ± SD), TA100: 205 ± 21^NS
S. typhimurium TA1535; with S9 mix, 0.4 μg/plate
  Number of revertants by plate (Means ± SD), TA1535: 23 ± 6^NS
S. typhimurium TA1535; with S9 mix, 0.6 μg/plate
  Number of revertants by plate (Means ± SD), TA1535: 29 ± 4^NS
S. typhimurium TA1535; with S9 mix, 0.8 μg/plate
  Number of revertants by plate (Means ± SD), TA1535: 27 ± 5^NS
S. typhimurium TA1535; with S9 mix, 1 μg/plate
  Number of revertants by plate (Means ± SD), TA1535: 29 ± 9^NS
S. typhimurium TA1535; without S9 mix, 0.4 μg/plate
  Number of revertants by plate (Means ± SD), TA1535: 22 ± 4^NS
S. typhimurium TA1535; without S9 mix, 0.6 μg/plate
  Number of revertants by plate (Means ± SD), TA1535: 29 ± 6^NS
S. typhimurium TA1535; without S9 mix, 0.8 μg/plate
  Number of revertants by plate (Means ± SD), TA1535: 28 ± 5^NS
S. typhimurium TA1535; without S9 mix, 1 μg/plate
  Number of revertants by plate (Means ± SD), TA1535: 20 ± 4^NS
CHO-K1 cells [2]; 5 μM
  BI (binucleated cells): 402
  CBPI (Cytokinesis-Blocked Proliferative Index): 1.81
  CI % (cytostasis index): 13%
  MNC1 (micronucleated cell rate): 9 ‰
  MNC2 (micronucleated cell rate): 11 ‰
  MNC-M (mean of micronucleated cell rates): 10 ± 1.4 ‰
  MONO (mononucleated cells): 98
CHO-K1 cells [2]; 10 μM
  BI (binucleated cells): 308
  CBPI (Cytokinesis-Blocked Proliferative Index): 1.62
  CI % (cytostasis index): 34%
  MNC1 (micronucleated cell rate): 10 ‰
  MNC2 (micronucleated cell rate): 12 ‰
  MNC-M (mean of micronucleated cell rates): 11 ± 1.4 ‰
  MONO (mononucleated cells): 192
CHO-K1 cells [2]; 50 μM
  BI (binucleated cells): 214
  CBPI (Cytokinesis-Blocked Proliferative Index): 1.42
  CI % (cytostasis index): 57%
  MNC1 (micronucleated cell rate): 11 ‰
  MNC2 (micronucleated cell rate): 9 ‰
  MNC-M (mean of micronucleated cell rates): 10 ± 1.4 ‰
  MONO (mononucleated cells): 286
Salmonella strains
  mutagenic activity in Salmonella strains (revertant rates): No significant increase in revertant rates
[3]
  IC50: 28.3 ± 1.5 nM
S. typhimurium TA97a; with S9 mix, 0.4 μg/plate
  Number of revertants by plate (Means ± SD), TA97a: 132 ± 11^NS
S. typhimurium TA97a; with S9 mix, 0.6 μg/plate
  Number of revertants by plate (Means ± SD), TA97a: 137 ± 2^NS
S. typhimurium TA97a; with S9 mix, 0.8 μg/plate
  Number of revertants by plate (Means ± SD), TA97a: 127 ± 9^NS
S. typhimurium TA97a; with S9 mix, 1 μg/plate
  Number of revertants by plate (Means ± SD), TA97a: 124 ± 4^NS
S. typhimurium TA97a; without S9 mix, 0.4 μg/plate
  Number of revertants by plate (Means ± SD), TA97a: 153 ± 5^NS
S. typhimurium TA97a; without S9 mix, 0.6 μg/plate
  Number of revertants by plate (Means ± SD), TA97a: 163 ± 4^NS
S. typhimurium TA97a; without S9 mix, 0.8 μg/plate
  Number of revertants by plate (Means ± SD), TA97a: 164 ± 5^NS
S. typhimurium TA97a; without S9 mix, 1 μg/plate
  Number of revertants by plate (Means ± SD), TA97a: 144 ± 11^NS
